Tests used:
[1] = test system: CAL-120, human breast adenocarcinoma cells; experiment: Proliferation assay CAL-120 (crystal violet, 4 days); type: cell-based; settings: Homo sapiens, CAL-120, 96 h, CAL-120 cells, median, read-out: Prolif-CAL-120, IC50-[mol/l] (median)
How it was run: (§1)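 IC50 from a 4-parameter fit of crystal violet absorbance (595 nm), scaled between the day-of-dosing plate (0%) and vehicle cells (100%). MDA-MB-231 or CAL-120 cells were treated for 4 days with 0.01–10 micromol/L compound in 0.1% DMSO after 24 h attachment.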

CDK9/CycT1 = molecular target: T1, CDK9/CycT1 (Homo sapiens, UniProt P50750); experiment: CDK9/CycT1 high ATP kinase assay (TR-FRET, 2 mM ATP); type: biochemical; settings: 2 mM ATP (high ATP); median; read-out: CDK9/CyclinT1, 2 mM ATP (high ATP), IC50 (median)
T1 construct: Recombinant full-length His-tagged human CDK9 and CycT1; purchased Life Technologies PV4131; host or cells: insect cells
T1 sequence (P50750 whole entry): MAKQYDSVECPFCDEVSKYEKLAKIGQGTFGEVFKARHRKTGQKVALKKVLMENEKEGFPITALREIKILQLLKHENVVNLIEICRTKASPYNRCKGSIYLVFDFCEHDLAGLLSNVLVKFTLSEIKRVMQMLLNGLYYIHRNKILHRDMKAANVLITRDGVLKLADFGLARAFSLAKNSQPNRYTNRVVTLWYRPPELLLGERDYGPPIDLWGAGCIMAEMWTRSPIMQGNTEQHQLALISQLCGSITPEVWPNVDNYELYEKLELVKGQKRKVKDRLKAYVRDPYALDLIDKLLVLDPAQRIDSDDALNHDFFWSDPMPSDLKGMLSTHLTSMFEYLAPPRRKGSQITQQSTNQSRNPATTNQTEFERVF
T1 sequence (O60563 whole entry partner): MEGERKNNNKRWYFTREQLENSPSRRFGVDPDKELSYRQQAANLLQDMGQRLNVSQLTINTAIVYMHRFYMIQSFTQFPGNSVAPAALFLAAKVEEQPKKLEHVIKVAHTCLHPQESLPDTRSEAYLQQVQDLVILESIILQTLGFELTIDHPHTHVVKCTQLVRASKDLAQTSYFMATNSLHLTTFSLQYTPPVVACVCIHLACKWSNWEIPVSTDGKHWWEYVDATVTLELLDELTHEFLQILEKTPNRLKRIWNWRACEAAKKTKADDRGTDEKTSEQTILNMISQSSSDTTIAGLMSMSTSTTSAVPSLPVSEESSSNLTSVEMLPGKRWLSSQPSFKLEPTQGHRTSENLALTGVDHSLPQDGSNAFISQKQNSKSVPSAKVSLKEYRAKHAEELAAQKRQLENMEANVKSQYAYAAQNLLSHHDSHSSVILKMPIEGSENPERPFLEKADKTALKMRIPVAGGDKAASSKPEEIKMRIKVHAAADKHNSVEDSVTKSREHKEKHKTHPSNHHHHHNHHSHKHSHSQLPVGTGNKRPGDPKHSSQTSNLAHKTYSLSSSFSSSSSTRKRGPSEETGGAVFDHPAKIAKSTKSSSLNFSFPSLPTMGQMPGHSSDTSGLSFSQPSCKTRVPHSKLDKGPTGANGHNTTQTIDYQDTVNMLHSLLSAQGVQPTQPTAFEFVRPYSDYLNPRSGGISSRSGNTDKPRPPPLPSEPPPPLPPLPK
How it was run: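 Full-length His-tagged human CDK9/CycT1 (insect cell, ~0.5 μg/mL) preincubated 15 min at 22 °C with compound in Tris pH 8.0, MgCl2, DTT buffer before reaction with biotinylated peptide substrate at high ATP (2 mM).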

[2] = test system: MDA-MB-231, human breast cancer cells; experiment: Proliferation assay MDA-MB-231 (crystal violet, 4 days); type: cell-based; settings: Homo sapiens, MDA-MB-231, 96 h, MDA-MB-231 cells, median, read-out: Prolif-MDA MB-231, IC50-[mol/l] (median)
How it was run: as §1

[3] = molecular target: T2, CDK12 protein level in CAL-120 breast cancer cells (Homo sapiens, UniProt Q9NYV4); experiment: CDK12 protein level: Protein Simple (CDK12, CAL-120); type: cell-based; settings: CAL-120 cells, 18 h with compound, CDK12/HSP90 peak area ratio vs vehicle, median, read-out: CDK12 protein level in CAL-120 breast ca cells, DC50-[mol/l] (median)
T2 construct: endogenous in cells; host or cells: CAL-120 human breast cancer cells (DSMZ ACC 459)
T2 sequence (Q9NYV4 whole entry): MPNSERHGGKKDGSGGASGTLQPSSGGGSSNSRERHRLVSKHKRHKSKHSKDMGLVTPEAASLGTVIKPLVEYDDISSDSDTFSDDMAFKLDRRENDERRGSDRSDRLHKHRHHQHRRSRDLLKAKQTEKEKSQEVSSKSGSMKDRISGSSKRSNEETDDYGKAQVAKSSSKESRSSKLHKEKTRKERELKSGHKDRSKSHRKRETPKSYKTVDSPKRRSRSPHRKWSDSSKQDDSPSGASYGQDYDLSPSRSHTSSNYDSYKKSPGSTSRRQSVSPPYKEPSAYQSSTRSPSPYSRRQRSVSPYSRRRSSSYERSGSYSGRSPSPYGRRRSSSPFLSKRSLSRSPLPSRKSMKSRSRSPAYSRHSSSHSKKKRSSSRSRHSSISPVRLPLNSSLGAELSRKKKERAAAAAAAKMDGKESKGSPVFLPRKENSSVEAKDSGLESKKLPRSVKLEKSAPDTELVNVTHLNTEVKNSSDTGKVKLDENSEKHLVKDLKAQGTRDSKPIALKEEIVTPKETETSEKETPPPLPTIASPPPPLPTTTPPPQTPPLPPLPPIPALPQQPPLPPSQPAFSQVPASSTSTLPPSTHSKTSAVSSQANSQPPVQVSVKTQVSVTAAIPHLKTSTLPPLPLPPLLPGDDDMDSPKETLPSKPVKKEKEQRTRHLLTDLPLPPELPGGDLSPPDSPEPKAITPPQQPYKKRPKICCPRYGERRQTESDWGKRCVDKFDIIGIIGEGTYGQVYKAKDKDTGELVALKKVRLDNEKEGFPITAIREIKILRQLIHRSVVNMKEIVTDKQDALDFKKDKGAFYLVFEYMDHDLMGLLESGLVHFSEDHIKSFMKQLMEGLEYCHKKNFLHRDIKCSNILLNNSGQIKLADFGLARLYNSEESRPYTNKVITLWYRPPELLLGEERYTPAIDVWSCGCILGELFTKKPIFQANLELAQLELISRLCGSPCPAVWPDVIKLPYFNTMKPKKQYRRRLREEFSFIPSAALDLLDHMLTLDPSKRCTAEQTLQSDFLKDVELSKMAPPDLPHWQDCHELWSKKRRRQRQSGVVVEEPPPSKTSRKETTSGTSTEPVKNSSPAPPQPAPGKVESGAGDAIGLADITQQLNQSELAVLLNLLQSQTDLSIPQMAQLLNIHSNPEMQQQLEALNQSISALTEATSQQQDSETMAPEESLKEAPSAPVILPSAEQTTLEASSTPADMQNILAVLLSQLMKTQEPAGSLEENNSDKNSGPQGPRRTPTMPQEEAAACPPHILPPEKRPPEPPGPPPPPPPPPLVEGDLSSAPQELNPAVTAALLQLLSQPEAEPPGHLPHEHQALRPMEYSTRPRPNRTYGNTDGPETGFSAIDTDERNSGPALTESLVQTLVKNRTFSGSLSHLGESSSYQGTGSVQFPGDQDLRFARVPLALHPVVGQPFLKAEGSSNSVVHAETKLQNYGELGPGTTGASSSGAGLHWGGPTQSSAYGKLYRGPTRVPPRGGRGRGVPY
T2 sequence (O75909 whole entry partner): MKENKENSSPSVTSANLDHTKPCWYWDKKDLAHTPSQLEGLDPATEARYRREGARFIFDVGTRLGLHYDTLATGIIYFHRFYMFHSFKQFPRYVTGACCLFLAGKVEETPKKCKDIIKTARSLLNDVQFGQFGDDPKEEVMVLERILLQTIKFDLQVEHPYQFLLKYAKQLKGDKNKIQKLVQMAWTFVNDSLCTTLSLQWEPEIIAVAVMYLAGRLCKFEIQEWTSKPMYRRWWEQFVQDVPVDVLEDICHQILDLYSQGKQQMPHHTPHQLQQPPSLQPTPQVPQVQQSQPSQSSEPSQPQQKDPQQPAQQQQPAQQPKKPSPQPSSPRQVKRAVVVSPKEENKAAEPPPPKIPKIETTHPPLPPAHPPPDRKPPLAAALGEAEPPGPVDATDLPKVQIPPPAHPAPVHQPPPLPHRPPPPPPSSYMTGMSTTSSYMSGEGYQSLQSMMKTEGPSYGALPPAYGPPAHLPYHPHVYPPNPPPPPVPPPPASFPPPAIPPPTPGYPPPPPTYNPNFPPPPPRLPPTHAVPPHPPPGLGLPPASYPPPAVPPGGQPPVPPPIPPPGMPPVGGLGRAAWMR
How it was run: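 Cells grown 24 h, then treated with compounds for 18 h at 37° C against DMSO controls. Lysates (0.4 microgramms protein) run on Protein Simple 66-440 kDa size assay with CDK12 and HSP90 loading-control antibodies. CDK12/HSP90 peak-area ratios versus vehicle gave DC50 (50% reduction) by 4-parameter fit.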

Row | SMILES | IC50 [1] [nM] | IC50 (CDK9/CycT1) [nM] | IC50 [2] [nM] | DC50 [3] [nM]
1 | CN1CCN(c2nc(NCc3nc4cc(C(F)(F)F)ccc4[nH]3)n3ncc(C4CC4)c3n2)CC1 [Example 313, 8-cyclopropyl-2-(4-methylpiperazin-1-yl)-N-{[5-(trifluoromethyl)-1H-benzimidazol-2-yl]methyl}pyrazolo[1,5-a][1,3,5]triazin-4-amine] | 9.52 | > 20000 | 15.6 | –
2 | CCc1cnn2c(NCc3nc4c(F)c(F)ccc4[nH]3)nc(N3CCN(C)CC3)nc12.O=CO [Example 435, formic acid N-[(4,5-difluoro-1H-benzimidazol-2-yl)methyl]-8-ethyl-2-(4-methylpiperazin-1-yl)pyrazolo[1,5-a][1,3,5]triazin-4-amine] | 1.76 | > 20000 | 4.25 | –
3 | COC1CCN(c2nc(NCc3nc4ccccc4[nH]3)n3ncc(Br)c3n2)CC1 [Example 62, N-[(1H-benzimidazol-2-yl)methyl]-8-bromo-2-(4-methoxypiperidin-1-yl)pyrazolo[1,5-a][1,3,5]triazin-4-amine] | 32.5 | > 20000 | – | 128
4 | Fc1ccc(-c2cnc(CNc3nc(N4CCOCC4)nc4c(Br)cnn34)[nH]2)cc1 [Example 66, 8-bromo-N-{[5-(4-fluorophenyl)-1H-imidazol-2-yl]methyl}-2-(morpholin-4-yl)pyrazolo[1,5-a][1,3,5]triazin-4-amine] | 230 | 4480 | – | 43.7
5 | COC(=O)C1CCN(c2nc(NCc3nc4ccccc4[nH]3)n3ncc(Br)c3n2)CC1 [Example 63, methyl 1-(4-{[(1H-benzimidazol-2-yl)methyl]amino}-8-bromopyrazolo[1,5-a][1,3,5]triazin-2-yl)piperidine-4-carboxylate] | 36 | > 20000 | – | 41.8
6 | CC(C)c1cnn2c(NCc3nc4ccccc4[nH]3)nc(N3CCOC(C)(C)C3)nc12 [Example 12, N-[(1H-benzimidazol-2-yl)methyl]-2-(2,2-dimethylmorpholin-4-yl)-8-(propan-2-yl)pyrazolo[1,5-a][1,3,5]triazin-4-amine] | – | > 20000 | 373 | –
7 | O[C@@H]1CCN(c2nc(NCc3nc4ccccc4[nH]3)n3ncc(Br)c3n2)C1 [Example 202, (3R)-1-(4-{[(1H-benzimidazol-2-yl)methyl]amino}-8-bromopyrazolo[1,5-a][1,3,5]triazin-2-yl)pyrrolidin-3-ol] | 131 | > 20000 | 295 | –
8 | Fc1ccc2[nH]c(CNc3nc(N4CCOCC4)nc4c(-c5cnn(C(F)F)c5)cnn34)nc2c1F [Example 422, N-[(4,5-difluoro-1H-benzimidazol-2-yl)methyl]-8-[1-(difluoromethyl)-1H-pyrazol-4-yl]-2-(morpholin-4-yl)pyrazolo[1,5-a][1,3,5]triazin-4-amine] | 6.88 | > 20000 | 20.1 | –
9 | Brc1cnn2c(NCc3nnc(-c4ccccc4)[nH]3)nc(N3CCCC3)nc12 [Example 64, 8-bromo-N-[(5-phenyl-4H-1,2,4-triazol-3-yl)methyl]-2-(pyrrolidin-1-yl)pyrazolo[1,5-a][1,3,5]triazin-4-amine] | 36.1 | 3560 | – | 87.1
10 | CC(C)c1cnn2c(NCc3nc4ccccc4[nH]3)nc(N3CCOCC3)nc12 [Example 1, N-[(1H-benzimidazol-2-yl)methyl]-2-(morpholin-4-yl)-8-(propan-2-yl)pyrazolo[1,5-a][1,3,5]triazin-4-amine] | – | > 20000 | 86.4 | 57.4
11 | FC(F)(F)c1ccccc1-c1cnc(CNc2nc(N3CCOCC3)nc3c(Br)cnn23)[nH]1 [Example 88, 8-bromo-2-(morpholin-4-yl)-N-({5-[2-(trifluoromethyl)phenyl]-1H-imidazol-2-yl}methyl)pyrazolo[1,5-a][1,3,5]triazin-4-amine] | 14.2 | 6420 | – | –
12 | Clc1ccccc1-c1nnc(CNc2nc(N3CCOCC3)nc3c(Br)cnn23)[nH]1 [Example 69, 8-bromo-N-{[5-(2-chlorophenyl)-4H-1,2,4-triazol-3-yl]methyl}-2-(morpholin-4-yl)pyrazolo[1,5-a][1,3,5]triazin-4-amine] | 333 | 8350 | – | –
13 | FC(F)(F)c1cccc(-c2cnc(CNc3nc(N4CCOCC4)nc4c(Br)cnn34)[nH]2)c1 [Example 83, 8-bromo-2-(morpholin-4-yl)-N-({5-[3-(trifluoromethyl)phenyl]-1H-imidazol-2-yl}methyl)pyrazolo[1,5-a][1,3,5]triazin-4-amine] | 12.1 | 6790 | – | –
14 | Brc1cnn2c(NCc3ncc(-c4cccnc4)[nH]3)nc(N3CCOCC3)nc12 [Example 84, 8-bromo-2-(morpholin-4-yl)-N-{[5-(pyridin-3-yl)-1H-imidazol-2-yl]methyl}pyrazolo[1,5-a][1,3,5]triazin-4-amine] | 107 | 3440 | – | –
15 | Fc1cccc(-c2cnn3c(NCc4nc5ccccc5[nH]4)nc(N4CCOCC4)nc23)c1 [Example 91, N-[(1H-benzimidazol-2-yl)methyl]-8-(3-fluorophenyl)-2-(morpholin-4-yl)pyrazolo[1,5-a][1,3,5]triazin-4-amine] | 105 | > 20000 | – | –
16 | Fc1ccccc1-c1nnc(CNc2nc(N3CCOCC3)nc3c(Br)cnn23)[nH]1 [Example 75, 8-bromo-N-{[5-(2-fluorophenyl)-4H-1,2,4-triazol-3-yl]methyl}-2-(morpholin-4-yl)pyrazolo[1,5-a][1,3,5]triazin-4-amine] | 53.2 | > 6150 | – | –
17 | FC(F)(F)Oc1ccccc1-c1cnc(CNc2nc(N3CCOCC3)nc3c(Br)cnn23)[nH]1 [Example 89, 8-bromo-2-(morpholin-4-yl)-N-({5-[2-(trifluoromethoxy)phenyl]-1H-imidazol-2-yl}methyl)pyrazolo[1,5-a][1,3,5]triazin-4-amine] | 32.9 | > 20000 | – | –
18 | COc1cccc(-c2cnc(CNc3nc(N4CCOCC4)nc4c(Br)cnn34)[nH]2)c1 [Example 80, 8-bromo-N-{[5-(3-methoxyphenyl)-1H-imidazol-2-yl]methyl}-2-(morpholin-4-yl)pyrazolo[1,5-a][1,3,5]triazin-4-amine] | 14.2 | 5430 | – | –
19 | CN1CCN(c2nc(NCc3nc4cc(Cl)c(Cl)cc4[nH]3)n3ncc(C4CC4)c3n2)CC1 [Example 305, 8-cyclopropyl-N-[(5,6-dichloro-1H-benzimidazol-2-yl)methyl]-2-(4-methylpiperazin-1-yl)pyrazolo[1,5-a][1,3,5]triazin-4-amine] | 4.44 | > 20000 | 5.94 | –
